Tests used:
[1] = system: PR1 (marker gene for the salicylic acid signaling pathway); test: Transcriptional response of defense gene PR1 in tomato plants exposed to volatiles (laboratory); type: in vivo, Solanum lycopersicum cv. Moneymaker; conditions: intact tomato plants exposed 24 h; filter paper, 1:10,000 ester:methanol; n=8
Protocol: (§1) Moneymaker tomato plants were used. Two weeks after seed germination, the seedlings were individually transplanted into pots (8×8×8 cm). The plants were kept at 25±2° C., with a constant relative humidity of 65%±5% and a 14:10 h (light:dark) photoperiod. Tomato plants that had not received any pesticide treatment at four weeks of age (about 20 cm tall) were used. All volatiles used were obtained from Sigma-Aldrich (St. Louis, Mo., USA). Each volatile was exposed by using a 2×2 cm piece of filter paper on which 10 μl of a solution containing the corresponding volatile at a concentration of 1:10,000 [(Z)-3-hexenyl ester:methanol] was impregnated as an emitting source of the corresponding volatile (Pérez-Hedo, M. et al. Biocontrol, 63: 203-213 (2018)).
(§2) To activate a plant, two pieces of filter paper impregnated with the volatile were placed at the bottom of a 30×30×30 cm plastic cage (BugDorm-1 Insect Tents; MegaView Science Co., Ltd, Taichung, Taiwan) into which the plant was introduced. A control treatment was carried out in which the two pieces of filter paper were impregnated with 10 μl of methanol. Eight repetitions per treatment were performed. The plants of the treatments were kept exposed to the volatile without disturbing for 24 hours in separate and isolated climatic chambers to avoid any interference from the volatiles and were kept at 25±2° C., 65±10% RH, and a 14:10 h (L:D) photoperiod. […]
(§3) The methodology followed for extracting and quantifying gene expression was described by Pérez-Hedo et al. Journal of Pest Science 3: 543-554 (2015). The primers used were forward primer: 5′-[…]-3′ (SEQ ID NO: 1) and reverse primer: 5′-[…]-3′ (SEQ ID NO: 2) for the quantification of PR1, forward primer: 5′-[…]-3′ (SEQ ID NO: 3) and reverse primer: 5′-[…]-3′ (SEQ ID NO: 4) for SI-PI-I, and forward primer: 5′-[…]-3′ (SEQ ID NO: 5) and reverse primer: 5′-[…]-3′ (SEQ ID NO: 6) for the SI-PI-II gene. […]

[2] = system: SI-PI-I (marker for plant proteinase inhibitors); test: Transcriptional response of SI-PI-I in tomato plants exposed to volatiles (laboratory); type: in vivo, Solanum lycopersicum cv. Moneymaker; conditions: intact tomato plants exposed 24 h; filter paper, 1:10,000 ester:methanol; n=8
Protocol: as §1, §2, §3

Tuta absoluta = test: Field (commercial greenhouse) assay, leaflets infested by T. absoluta; type: in vivo; conditions: commercial tomato greenhouse, infested leaflets per plant, 500 dispensers/ha
Protocol: (§4) To know the behavior of the dispensers loaded with (Z)-3-hexenyl propionate under real cultivation conditions, four commercial greenhouses for tomato cv Raf located in Xilxes (Castellón province), with a history of problems with T. absoluta contamination at the end of winter, were selected. An experimental design of randomized blocks was carried out where each greenhouse was considered a block with two treatments per block and 4 repetitions per treatment. […]
(§5) Twenty plants randomly chosen by repetition were sampled weekly for 11 weeks, beginning 30 Jan. […] First, the number of leaflets infested by T. absoluta per plant was counted. Then the number of N. tenuis (adults and nymphs) throughout the apical third of each plant (leaves, flowers and shoots) was counted. Following the methodology described above, 6 samples were taken from the apical part of each plant per repetition, and these samples were immediately introduced into liquid nitrogen to quantify the expression of the PR1 and PIN2 genes (described in Example 1 and Example 2). The expression of these genes was quantified one day before, 4, and 8 weeks after hanging the dispensers in the greenhouses.

Nesidiocoris tenuis = conditions: in vivo
Protocol: as §4, §5

[3] = Emission kinetics of the dispenser (gravimetric method); type: physicochemical; conditions: 4-mL LD polyethylene vial loaded with 4 ml, field conditions; slope of the fitted model
Protocol: Two different types of polymeric emitters were used to test the activation level that different emission levels of (Z)-3-hexenyl propionate can provide: 4-mL low-density (LD) polyethylene vial and 4-mL high-density (HD) polyethylene vial. The highest emission level (5 mg/day) was achieved through previous laboratory studies with LD dispensers loaded with 20 mg of the pure substance. The lowest emission level (0.01 mg/day) was provided by HD vials loaded with a 1:100 mixture of (Z)-3-hexenyl propionate and paraffinic oil (0.02:2; g:g). The emission kinetics of the emitters used during the experiments was controlled by studying weight loss (gravimetric method). Additional dispensers were placed in the same environmental conditions, measuring their weight weekly with a precision scale (0.0001 g). The difference in weight recorded in each period will be the emitted quantity of the substance for each type of dispenser. To obtain the mean emission level of each dispenser, the recorded weights (y) are related to the aging time (x) using a multiple regression analysis.
As mentioned earlier, 2 zones were selected in each of the greenhouses in which, on 22 Feb. 2019, a dispenser (4-ml low-density (LD) polyethylene vial) loaded with 4 ml of (Z)-3-hexenyl was hung every 20 m^2 in one of them, and the other with the same surface area was used as a control treatment. […]

CC/C=C\CCOC(=O)CC [(Z)-3-hexenyl propanoate]
Transcriptional response of PR1 compared to the control [1]: significantly overexpressed | Transcriptional response of SI-PI-I compared to the control [2]: significantly overexpressed | Infestation of T. absoluta lower than control (Tuta absoluta): about 58% | Population of the plant bug N. tenuis, treatment vs control (Nesidiocoris tenuis): remained the same | Mean emission rate from the dispenser [3]: 12.2 mg/day

From patent US20230240290A1, “USE OF (Z)-3-HEXENYL ESTERS AND METHOD FOR PROTECTING PLANTS AGAINST PESTS” (UNIVERSITAT POLITÈCNICA DE VALÈNCIA, priority 2020, published 2023)
